Here are results for 1 compound from patent publication US8563742B2, “Substituted aminothiazole derivatives, pharmaceutical compositions, and methods of use” (High Point Pharmaceuticals, LLC, priority 2008, dated 2013).

One series has as its target T1, human MC-4R (Homo sapiens, UniProt P32245).
T1 construct: expressed in transfected cells
In words: Biological Assay: inhibition of AgRP functional interaction with MC-4R in presence of αMSH (cAMP production). The format is cell-based. The following applies: HEK293 cells expressing human MC-4R, AgRP83-132 and αMSH present; read-out: Average EC50 (nM) in Biological Assay. The method, boiled down:
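HEK293 cells stably expressing human MC-4R (20,000/well) in EBSS/HEPES pH 7.4 with 0.5 mM IBMX. Compounds preincubated 30 min at room temperature with human AgRP83-132, then cells added and stimulated with αMSH 30 min at 37 °C. Intracellular cAMP measured after lysis; inhibition of AgRP seen as increased cAMP.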
A general note: cAMP levels reflect the balance of adenylyl cyclase and phosphodiesterase activity.

Series [1] can be described thus: Stability in Liver Microsomes (human). The note with it: 1 μM, 0.5 mg protein/mL, NADPH, 60 minutes, 37° C., pH 7.4. The format is in vitro ADME. The protocol: (§1) Various compounds were tested for their stability in human, monkey, dog, rat, and mouse liver microsomes. At a final concentration of 1 μM, compounds were incubated with either human, monkey, dog, rat, or mouse liver microsomes (0.5 mg protein/mL) in the presence of an NADPH-solution for 60 minutes at 37° C., pH 7.4 in phosphate buffer. Incubations were performed in duplicate. Reactions were terminated by the addition of methanol. The incubation solution was vortexed and transferred into a 96-well plate. The plate was sealed and centrifuged at approximately 3500 rpm for approximately 10 minutes. After centrifugation, the plate was loaded into 96-well plate autosampler and analyzed by LC/MS. Values are reported as percent of compound remaining after 1 hour.
(Microsomes from liver hold many membrane-bound enzymes, among them those of drug oxidation.)

The nature of series [2]: Stability in Liver Microsomes (monkey). The format is in vitro ADME. The following applies: 1 μM, 0.5 mg protein/mL, NADPH, 60 minutes, 37° C., pH 7.4. The protocol:
as §1

Series [3] in a line: Stability in Liver Microsomes (dog). The note with it: 1 μM, 0.5 mg protein/mL, NADPH, 60 minutes, 37° C., pH 7.4. The format is in vitro ADME. The procedure: as §1
A short description of series [4]: Stability in Liver Microsomes (rat). The following applies: 1 μM, 0.5 mg protein/mL, NADPH, 60 minutes, 37° C., pH 7.4. The format is in vitro ADME. The procedure:
as §1

Series [5] in a line: Stability in Liver Microsomes (mouse). The following applies: 1 μM, 0.5 mg protein/mL, NADPH, 60 minutes, 37° C., pH 7.4. The format is in vitro ADME. The protocol: as §1
For series [6] the following is noted: male, Sprague Dawley, rat, in vivo, po, 5 mg/kg, 2 h.
The nature of the next series: in vivo. The note with it: male, Sprague Dawley, rat, po, 5 mg/kg.

T1 sequence (P32245 whole entry): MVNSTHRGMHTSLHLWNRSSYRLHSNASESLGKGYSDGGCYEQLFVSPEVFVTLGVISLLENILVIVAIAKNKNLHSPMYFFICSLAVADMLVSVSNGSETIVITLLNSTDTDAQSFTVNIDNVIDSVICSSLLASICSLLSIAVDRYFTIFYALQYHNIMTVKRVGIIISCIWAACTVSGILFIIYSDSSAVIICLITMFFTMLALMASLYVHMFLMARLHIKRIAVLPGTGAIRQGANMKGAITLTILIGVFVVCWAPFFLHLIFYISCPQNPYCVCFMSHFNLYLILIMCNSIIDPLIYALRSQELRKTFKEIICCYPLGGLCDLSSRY

Take `CCc1ccc(CN(CCC(=O)[O-])c2nc([C@H]3CC[C@H](C(C)(C)C)CC3)cs2)s1.[Na+]` [Example 8, Sodium; 3-[[4-(trans-4-tert-butyl-cyclohexyl)-thiazol-2-yl]-(5-ethyl-thiophen-2-ylmethyl)-amino]-propionate]: at human MC-4R, the EC50 is 210 nM. Further, the “Stability in Liver Microsomes (% remaining after 1 hour incubation) Human” value in series [1] amounted to 93%. Besides, in series [2], the “Stability in Liver Microsomes (% remaining after 1 hour incubation) Monkey” value is given as 84%. Also, the “Stability in Liver Microsomes (% remaining after 1 hour incubation) Dog” value in series [3] is 91%. Further, the “Stability in Liver Microsomes (% remaining after 1 hour incubation) Rat” value in series [4] worked out at 88%. Besides, in series [5], the “Stability in Liver Microsomes (% remaining after 1 hour incubation) Mouse” value stood at 88%. For the same compound, the “Plasma:Brain Ratio” value in series [6] was 3.3:1. The concentration at 2 h in “in vivo” (Brain - 2 hours (ng/g)) came out at 1580 ng/g; in the series “in vivo” (Plasma - 2 hours (ng/mL)), 5160 ng/mL.

By EC50 is commonly meant the midpoint of the concentration-response curve.
